# Where a name gives a salt, the structure may show the parent alone.
# Tested on: Acinetobacter baumannii ATCC17961
# Experiment: Antimicrobial susceptibility testing: 90% growth inhibitory concentration (IC90) determination, Iso-Sensitest broth, OD 600 nm
# Type: cell-based
# Conditions: 90% growth inhibitory concentration, Acinetobacter baumannii ATCC17961, Iso-Sensitest broth, OD 600 nm over 16 h; read-out: ATCC 17961 IC90
# Outline: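 Twofold serial dilutions (e.g. 50–0.097 μM final) incubated with ~5×10^5 CFU/ml in Iso-Sensitest broth at 35±2 °C. OD600 read every 20 min for 16 h; IC90 derived from growth inhibition during logarithmic phase.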
row,IC90 [µM],Structure (SMILES)
1,2.79,"CCc1cc(Nc2nccn3c(-c4ccc(OC)cc4S(=O)(=O)NC)cnc23)ccc1C(=O)NCCOCCN [Example 55, N-[2-(2-aminoethoxy)ethyl]-2-ethyl-4-[[3-[4-methoxy-2-(methylsulfamoyl)phenyl]imidazo[1,2-a]pyrazin-8-yl]amino]benzamide; formic acid]"
2,0.04,"CCc1cc(Nc2nccn3c(-c4ccc(OC)cc4C(F)F)cnc23)ccc1C(=O)NCCOCCN [Example 229, N-[2-(2-amino-ethoxy)ethyl]-4-[[3-[2-(difluoro-methyl)-4-methoxy-phenyl]imidazo [1,2-a]pyrazin-8-yl]amino]-2-ethyl-benzamide]"
3,0.55,"CCc1cc(Nc2nccn3c(-c4cc(F)ccc4F)cnc23)ccc1C(=O)NCCOCCN [Example 210, N-[2-(2-amino-ethoxy)ethyl]-4-[[3-(2,5-difluorophenyl)imidazo[1,2-a]pyrazin-8-yl]amino]-2-ethyl-benzamide]"
4,0.2,"CCc1cc(Nc2nccn3c(-c4ccc(OC)c(F)c4F)cnc23)cc(F)c1C(=O)NCCOCCN [Example 202, N-(2-(2-amino-ethoxy)ethyl)-4-((3-(2,3-difluoro-4-methoxyphenyl)imidazo[1,2-a]pyrazin-8-yl)amino)-2-ethyl-6-fluorobenzamide dihydrochloride]"
5,0.08,"CCc1cc(Nc2nccn3c(-c4cc(Cl)c(OC)cc4F)cnc23)ccc1C(=O)NCCOCCN [Example 220, N-[2-(2-amino-ethoxy)ethyl]-4-[[3-(5-chloro-2-fluoro-4-methoxy-phenyl)imidazo[1,2-a]pyrazin-8-yl]amino]-2-ethyl-benzamide]"
6,0.3,"CCc1cc(Nc2nccn3c(-c4cccc(F)c4C(F)(F)F)cnc23)ccc1C(=O)NCCOCCN [Example 179, N-[2-(2-aminoethoxy)ethyl]-2-ethyl-4-[[3-[3-fluoro-2-(trifluoromethyl)phenyl]imidazo [1,2-a]pyrazin-8-yl]amino] benzamide]"
7,0.22,"CCc1cc(Nc2nccn3c(-c4ccc(O)cc4C(F)(F)F)cnc23)ccc1C(=O)NCCOCCN [Example 182, N-[2-(2-aminoethoxy)ethyl]-2-ethyl-4-[[3-[4-hydroxy-2-(trifluoromethyl)phenyl]imidazo [1,2-a]pyrazin-8-yl]amino] benzamide; hydrochloride]"
8,0.81,"CCc1cc(Nc2nccn3c(-c4cc(C)cc(F)c4)cnc23)ccc1C(=O)NCCOCCN [Example 213, N-[2-(2-amino-ethoxy)ethyl]-2-ethyl-4-[[3-(3-fluoro-5-methyl-phenyl)imidazo [1,2-a]pyrazin-8-yl]amino] benzamide]"
9,0.04,"CCc1cc(Nc2nccn3c(-c4cc(F)c(OC)cc4F)cnc23)ccc1C(=O)NCCOCCN [Example 222, N-[2-(2-amino-ethoxy)ethyl]-4-[[3-(2,5-difluoro-4-methoxy-phenyl)imidazo[1,2-a]pyrazin-8-yl]amino]-2-ethyl-benzamide]"
10,0.26,"CCc1cc(Nc2nccn3c(-c4ccc(OC)cc4CC)cnc23)ccc1C(=O)NCCOCCN [Example 206, N-(2-(2-amino-ethoxy)ethyl)-2-ethyl-4-((3-(2-ethyl-4-methoxyphenyl)imidazo[1,2-a]pyrazin-8-yl)amino)benzamide hydrochloride]"

# Continued, molecule first:
row,Structure (SMILES),IC90 [µM]
1,"CCc1cc(Nc2nccn3c(-c4ccc(OC)c(F)c4F)cnc23)ccc1C(=O)N[C@H](C)CNCCCCNCCCN [Example 228, (R)-N-(1-((4-((3-aminopropyl)amino)butyl)amino)propan-2-yl)-4-((3-(2,3-difluoro-4-methoxyphenyl)imidazo[1,2-a]pyrazin-8-yl)amino)-2-ethylbenzamide trihydrochloride]",0.51
2,"CCc1cc(Nc2nccn3c(-c4ccc(Oc5ccccn5)c(F)c4F)cnc23)ccc1C(=O)NCCOCC(=O)N1CCN[C@H](CO)C1 [Example 204, 4-[[3-[2,3-difluoro-4-(2-pyridyloxy)phenyl]imidazo [1,2-a]pyrazin-8-yl]amino]-2-ethyl-N-[2-[2-[(3S)-3-(hydroxymethyl)piperazin-1-yl]-2-oxo-ethoxy]ethyl]benzamide]",0.53
3,"COc1ccc(-c2cnc3c(Nc4cc(C)c(C(=O)NCCOCCNC(=O)[C@@H]5C[C@@H](O)CN5)c(F)c4)nccn23)c(F)c1F [Example 215, (2S,4R)-N-(2-(2-(4-((3-(2,3-difluoro-4-methoxyphenyl)imidazo[1,2-a]pyrazin-8-yl)amino)-2-fluoro-6-methyl-benzamido)ethoxy)ethyl)-4-hydroxy-pyrrolidine-2-carboxamide]",0.23
4,"C#CCOc1ccc(-c2cnc3c(Nc4ccc(C(=O)N[C@@H](C)CNCC(N)=O)c(CC)c4)nccn23)c(F)c1F [Example 207, N-[(1S)-2-[(2-amino-2-oxo-ethyl)amino]-1-methyl-ethyl]-4-[[3-(2,3-difluoro-4-prop-2-ynoxy-phenyl)imidazo [1,2-a]pyrazin-8-yl]amino]-2-ethyl-benzamide]",0.35
5,"CCc1cc(Nc2nccn3c(-c4ccc(OC)c(F)c4F)cnc23)ccc1C(=O)NCCNCC(=O)N1CCN[C@H](CO)C1 [Example 178, 4-[[3-(2,3-difluoro-4-methoxyphenyl)imidazo[1,2-a]pyrazin-8-yl]amino]-2-ethyl-N-[2-[[2-[(3S)-3-(hydroxymethyl)piperazin-1-yl]-2-oxoethyl]amino]ethyl]benzamide]",0.16
6,"C=CCNCCCNC(=O)c1ccc(Nc2nccn3c(-c4ccc(OC)c(F)c4F)cnc23)cc1CC [Example 181, 4-[[3-(2,3-difluoro-4-methoxyphenyl)imidazo[1,2-a]pyrazin-8-yl]amino]-2-ethyl-N-[3-(prop-2-enylamino)propyl] benzamide; hydrochloride]",0.16
7,"COc1ccc(-c2cnc3c(Nc4ccc(C(=O)NCCCNCCO)c(Cl)c4)nccn23)c(F)c1F [Example 221, 2-chloro-4-((3-(2,3-difluoro-4-methoxyphenyl)imidazo[1,2-a]pyrazin-8-yl)amino)-N-(3-((2-hydroxyethyl)amino)propyl) benzamide 2-chloro-4-((3-(2,3-difluoro-4-methoxyphenyl)imidazo[1,2-a]pyrazin-8-yl)amino)-N-(3-((2-hydroxyethyl)amino)propyl)benzamide]",0.08
8,"CCc1cc(Nc2nccn3c(-c4ccc(Oc5ccccn5)c(F)c4F)cnc23)ccc1C(=O)NCCNCC(=O)N1CCN[C@H](CO)C1 [Example 205, 4-[[3-[2,3-difluoro-4-(2-pyridyloxy)phenyl]imidazo [1,2-a]pyrazin-8-yl]amino]-2-ethyl-N-[2-[[2-[(3S)-3-(hydroxymethyl)piperazin-1-yl]-2-oxo-ethyl]amino]ethyl]benzamide]",0.59
9,"CCc1cc(Nc2nccn3c(-c4ccc(OC)c(F)c4F)cnc23)ccc1C(=O)NCCCCCN(C)C [Example 223, 4-((3-(2,3-difluoro-4-methoxyphenyl)imidazo[1,2-a]pyrazin-8-yl)amino)-N-(5-(dimethylamino)pentyl)-2-ethylbenzamide]",0.03
10,C#CCOc1ccc(-c2cnc3c(Nc4ccc(C(=O)N[C@@H](C)CNCCN)c(CC)c4)nccn23)c(F)c1F [Example 200],0.63
11,"COc1ccc(-c2cnc3c(Nc4cc(C)c(C(=O)NCCOCCN=C(N(C)C)N(C)C)c(F)c4)nccn23)c(F)c1F [Example 212, N-(2-(2-((bis(dimethyl-amino)methylene)amino)ethoxy)ethyl)-4-((3-(2,3-difluoro-4-methoxyphenyl)imidazo[1,2-a]pyrazin-8-yl)amino)-2-fluoro-6-methylbenzamide formate]",0.4
12,"CCc1cc(Nc2nccn3c(-c4ccc(OC)c(F)c4F)cnc23)ccc1C(=O)NCCOCC(=O)N1CCN[C@H](CO)C1 [Example 203, 4-[[3-(2,3-difluoro-4-methoxy-phenyl)imidazo [1,2-a]pyrazin-8-yl]amino]-2-ethyl-N-[2-[2-[(3S)-3-(hydroxymethyl)piperazin-1-yl]-2-oxo-ethoxy]ethyl]benzamide]",0.43
13,"CCc1cc(Nc2nccn3c(-c4ccc(OC)c(F)c4F)cnc23)ccc1C(=O)N[C@@H](C)CNCCO [Example 218, 4-[[3-(2,3-difluoro-4-methoxy-phenyl)imidazo [1,2-a]pyrazin-8-yl]amino]-2-ethyl-N-[(1S)-2-(2-hydroxyethyl-amino)-1-methyl-ethyl]benzamide]",0.54
14,"CCOCCCNC(=O)c1ccc(Nc2nccn3c(-c4ccc(OC)c(F)c4F)cnc23)cc1CC [Example 224, 4-((3-(2,3-difluoro-4-methoxyphenyl)imidazo[1,2-a]pyrazin-8-yl)amino)-N-(3-ethoxypropyl)-2-ethylbenzamide]",0.18
15,"COc1ccc(-c2cnc3c(Nc4cc(C)c(C(=O)NCCOCCN)c(Cl)c4)nccn23)c(F)c1F [Example 62, N-(2-(2-aminoethoxy)ethyl)-2-chloro-4-((3-(2,3-difluoro-4-methoxyphenyl)imidazo[1,2-a]pyrazin-8-yl)amino)-6-methyl-benzamide]",1.87
16,"CCc1cc(Nc2nccn3c(-c4ccc(OC)c(F)c4F)cnc23)ccc1C(=O)N[C@@H](C)CNCCN [Example 219, N-[(1S)-2-(2-aminoethyl-amino)-1-methyl-ethyl]-4-[[3-(2,3-difluoro-4-methoxy-phenyl)imidazo[1,2-a]pyrazin-8-yl]amino]-2-ethyl-benzamide; formic acid]",0.58

# Same assay, conditions: Acinetobacter baumannii, ATCC17961, 16 h, read-out: ATCC 17961 IC90
row,Structure (SMILES),IC90 [µM]
1,"CCc1cc(Nc2nccn3c(-c4ccc(OC)c(F)c4F)cnc23)ccc1C(=O)NCCOCC(C)(C)N [Example 72, N-[2-(2-amino-2-methyl-propoxy)ethyl]-4-[[3-(2,3-difluoro-4-methoxy-phenyl)imidazo[1,2-a]pyrazin-8-yl]amino]-2-ethyl-benzamide; formic acid]",0.04
2,"CCc1cc(Nc2nccn3c(-c4ccc(OC)cc4C(F)(F)F)cnc23)ccc1C(=O)NCCOCCN [Example 56, N-(2-(2-aminoethoxy)ethyl)-2-ethyl-4-((3-(4-methoxy-2-(trifluoromethyl)phenyl)imidazo[1,2-a]pyrazin-8-yl)amino)benzamide hydrochloride]",0.08
